Results on 9 molecules are retold here after ChEMBL document CHEMBL1146829, “Acetylene-based analogues of thiolactomycin, active against Mycobacterium tuberculosis mtFabH fatty acid condensing enzyme” (Bioorg Med Chem Lett, 2004).

A short description of the test: Inhibitory activity against recombinant Mycobacterium tuberculosis beta-ketoacyl-Acyl Carrier Protein synthase mtFabH condensing enzyme.
A word on the IC50: it is the concentration that gives 50% inhibition. In the case of `CC1=C(O)C(C)(Cc2ccc(-c3ccc(COCc4ccccc4)cc3)cc2)SC1=O` (centres undefined), the IC50 is 17 µM.

On to `CC(=O)c1ccc(C#CCC2(C)SC(O)=C(C)C2=O)cc1O` (centres undefined), for which the IC50 stood at 7 µM.

On to `C=C/C(C)=C/[C@@]1(C)SC(=O)C(C)=C1O` [THIOLACTOMYCIN], for which the IC50 stood at 74.9 µM.

As for `CC1=C(O)C(C)(CC#Cc2ccccc2C#N)SC1=O` (centres undefined), the IC50 worked out at 48 µM.

As for `COC(=O)c1ccc(C#CCC2(C)SC(O)=C(C)C2=O)cc1` (centres undefined), the IC50 amounted to 74 µM.

With `CC1=C(O)C(C)(CC#Cc2ccc(C#N)cc2)SC1=O` (centres undefined), the IC50 was determined as 7 µM.

`CC(=O)c1ccc(C#CCC2(C)SC(O)=C(C)C2=O)cc1` (centres undefined): the IC50 stood at 4 µM.

For the molecule `C#CCC1(C)SC(=O)C(C)=C1O` (centres undefined), the IC50 came out at 100 µM.

As to `CC1=C(O)C(C)(CC#Cc2ccc([N+](=O)[O-])cc2)SC1=O` (centres undefined), the IC50 stood at 34 µM.
